We go through 12 molecules from patent US20260062422A1 (Halda Therapeutics OpCo, Inc., priority 2022, published 2026).

One experiment has as its system T47D cells. The experiment in a line: Cellular growth inhibition assay for T47D cells, CellTiter-Glo. In kind it is cell-based, human. Conditions: 72 hours treatment, CellTiter-Glo 2.0 cell viability. The procedure, abridged:
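Luminescence from CellTiter-Glo 2.0 after 72 h of compound exposure gives the viability signal. Cells grew in insulin-supplemented (0.2 units/mL) DMEM with 10% FBS and were treated one day after seeding at 0.5% DMSO. GI50 values come from four-parameter nonlinear regression.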
In general terms: In ATP-based viability assays light output follows the ATP content of the culture.

Experiment [1] relates to T-Rex 293 cell line SC3 cells lacking increased expression of androgen receptor protein. Description: Cellular growth inhibition, T-Rex 293 SC3 cells without doxycycline, CellTiter-Glo. In kind it is cell-based. The following applies: T-Rex 293 SC3 cells not exposed to doxycycline, CellTiter-Glo 2.0. The procedure, abridged: (§1)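 SC3 is a T-Rex 293 clone stably transfected with wild-type androgen receptor in pcDNA4/TO, inducible by 10 ng/mL doxycycline. Cells were grown in phenol red-free DMEM with 10% charcoal-dextran FBS, with or without doxycycline, dosed 24 h after seeding (0.5% DMSO) for 72 h. Viability was read by CellTiter-Glo 2.0 luminescence and GI50 obtained from four-parameter fits.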

A further experiment relates to VCaP cells. Description: Cellular growth inhibition assay for VCaP cells, CellTiter-Glo. The following applies: 72 hours treatment, CellTiter-Glo 2.0. It counts as cell-based, human. The procedure, abridged:
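GI50 values come from four-parameter curve fits of luminescence data normalized to a zero baseline. Compound, in medium with 0.5% DMSO, was added one day after plating and left for 72 h before CellTiter-Glo 2.0 addition.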

Experiment [2] concerns T-Rex 293 cell line SC3 cells having increased expression of androgen receptor protein due to exposure to doxycycline. Description: Cellular growth inhibition, T-Rex 293 SC3 cells with doxycycline (androgen receptor induced), CellTiter-Glo. It counts as cell-based. The following applies: T-Rex 293 SC3 cells with 10 ng/mL doxycycline (increased androgen receptor expression). The essentials: as §1

As a reminder, the GI50 is the concentration giving 50% growth inhibition. Low readings indicate greater sensitivity of the cells, high ones lower sensitivity of the cells. With `Cc1sc2c(c1C)C(c1ccc(C[C@H]3C[C@@H](OC4CCN(c5ncc(C(=O)N[C@H]6C(C)(C)[C@H](Oc7ccc(C#N)c(Cl)c7)C6(C)C)cn5)CC4)C3)cc1)=N[C@@H](Cc1ncco1)c1nnc(C)n1-2` [Compound I-426], the GI50 in the experiment with T47D cells (Homo sapiens, T47D, 72 h) was < 0.5 µM; in experiment [1] (72 h), > 3 µM; with VCaP cells (Homo sapiens, VCaP, 72 h), < 0.5 µM; in experiment [2] (72 h), < 0.5 µM.

In the case of `Cc1sc2c(c1C)C(c1ccc(C[C@H]3C[C@@H](OC4CCN(c5ncc(C(=O)N[C@H]6C(C)(C)[C@H](Oc7ccc(C#N)c(Cl)c7)C6(C)C)cn5)CC4)C3)cc1)=N[C@@H](Cc1ncco1)c1nnc(C)n1-2` [Compound I-427], the GI50 with T47D cells is < 0.5 µM; in experiment [1] (72 hours) it was > 3 µM; in the experiment on VCaP cells, < 0.5 µM; in experiment [2] (72 hours) it was < 0.5 µM.

In the case of `Cc1sc2c(c1C)C(c1ccc([C@H]3CC[C@@]4(C3)CN(c3ncc(C(=O)N[C@H]5C(C)(C)[C@H](Oc6ccc(C#N)c(Cl)c6)C5(C)C)cn3)CCO4)cc1)=N[C@@H](Cc1ncco1)c1nnc(C)n1-2` [Compound I-428], the GI50 with T47D cells (Homo sapiens, T47D, 72 h) was > 3 µM; in experiment [1] (72 h) it was > 3 µM; with VCaP cells (Homo sapiens, VCaP, 72 h) it was > 3 µM; in experiment [2] (72 h), < 0.5 µM.

Turning to `Cc1sc2c(c1C)C(c1ccc(CC(C)(C)N3CC4(CCCN(c5ncc(C(=O)N[C@H]6C(C)(C)[C@H](Oc7ccc(C#N)c(Cl)c7)C6(C)C)cn5)C4)C3)cc1)=N[C@@H](Cc1ncco1)c1nnc(C)n1-2` [Compound I-429], the GI50 in the experiment on T47D cells (Homo sapiens, T47D, 72 h) was < 0.5 µM; in experiment [1] (72 h), 1.5 to 3 µM; in the experiment on VCaP cells (Homo sapiens, VCaP, 72 h), < 0.5 µM; in experiment [2] (72 h), < 0.5 µM.

For the molecule `Cc1sc2c(c1C)C(c1ccc(-n3ncc(C4CCN(c5ncc(C(=O)N[C@H]6C(C)(C)[C@H](Oc7ccc(C#N)c(Cl)c7)C6(C)C)cn5)CC4)n3)cc1)=N[C@@H](Cc1ncco1)c1nnc(C)n1-2` [Compound I-430], the concentration for 50% growth inhibition (GI50) is < 0.5 µM in the experiment with T47D cells (Homo sapiens, T47D, 72 h); < 0.5 µM in experiment [1] (72 h); < 0.5 µM with VCaP cells (Homo sapiens, VCaP, 72 h); < 0.5 µM in experiment [2] (72 h).

Take `Cc1sc2c(c1C)C(c1ccc(-c3csnc3OC3CCN(c4ncc(C(=O)N[C@H]5C(C)(C)[C@H](Oc6ccc(C#N)c(Cl)c6)C5(C)C)cn4)CC3)cc1)=N[C@@H](Cc1ncco1)c1nnc(C)n1-2` [Compound I-431]: the GI50 with T47D cells (Homo sapiens, T47D, 72 h) is > 3 µM; in experiment [1] (72 h) it was > 3 µM; in the experiment on VCaP cells (Homo sapiens, VCaP, 72 h) it was < 0.5 µM; in experiment [2] (72 h) it was < 0.5 µM.

In the case of `Cc1sc2c(c1C)C(c1ccc(-c3conc3OC3CCN(c4ncc(C(=O)N[C@H]5C(C)(C)[C@H](Oc6ccc(C#N)c(Cl)c6)C5(C)C)cn4)CC3)cc1)=N[C@@H](Cc1ncco1)c1nnc(C)n1-2` [Compound I-432], the GI50 in the experiment on T47D cells (Homo sapiens, T47D, 72 h) was > 3 µM; in experiment [1] (72 h), > 3 µM; in the experiment on VCaP cells (Homo sapiens, VCaP, 72 h) it was < 0.5 µM; in experiment [2] (72 h), < 0.5 µM.

`[2H]C([2H])(c1ccc(C2=N[C@@H](Cc3ncco3)c3nnc(C)n3-c3sc(C)c(C)c32)cc1)N1CC[C@@]2(CCCN(c3ncc(C(=O)N[C@H]4C(C)(C)[C@H](Oc5ccc(C#N)c(Cl)c5)C4(C)C)cn3)C2)C1` [Compound I-433]: the GI50 in the experiment on T47D cells (Homo sapiens, T47D, 72 h) is 0.5 to 1.5 µM; in experiment [1] (72 h), < 0.5 µM; in the experiment with VCaP cells (Homo sapiens, VCaP, 72 h), < 0.5 µM; in experiment [2] (72 h) it was < 0.5 µM.

`[2H]C([2H])(c1ccc(C2=N[C@@H](Cc3ncco3)c3nnc(C)n3-c3sc(C)c(C)c32)cc1)N1CC[C@]2(CCCN(c3ncc(C(=O)N[C@H]4C(C)(C)[C@H](Oc5ccc(C#N)c(Cl)c5)C4(C)C)cn3)C2)C1` [Compound I-434]: the GI50 was < 0.5 µM in the experiment with T47D cells (Homo sapiens, T47D, 72 h); > 3 µM in experiment [1] (72 h); < 0.5 µM in the experiment with VCaP cells (Homo sapiens, VCaP, 72 h); < 0.5 µM in experiment [2] (72 h).

For `Cc1sc2c(c1C)C(c1ccc(N3CCC(C4CCN(c5cnc(C(=O)N[C@H]6C(C)(C)[C@H](Oc7ccc(C#N)c(Cl)c7)C6(C)C)cn5)CC4)CC3)cc1)=N[C@@H](C)c1nnc(C)n1-2` [Compound I-437], the 50% growth inhibitory concentration (GI50) is < 0.5 µM with T47D cells (Homo sapiens, T47D, 72 h); > 3 µM in experiment [1] (72 h); > 3 µM in the experiment on VCaP cells (Homo sapiens, VCaP, 72 h); < 0.5 µM in experiment [2] (72 h).

For `Cc1sc2c(c1C)C(c1ccc(C(C)(C)N3CC4(CCN(c5ncc(C(=O)N[C@H]6C(C)(C)[C@H](Oc7ccc(C#N)c(Cl)c7)C6(C)C)cn5)CC4)C3)cc1)=N[C@@H](Cc1ncco1)c1nnc(C)n1-2` [Compound I-438], the GI50 in the experiment on T47D cells is > 3 µM; in experiment [1] (72 h), 1.5 to 3 µM; in the experiment on VCaP cells, 0.5 to 1.5 µM; in experiment [2] (72 hours), < 0.5 µM.

As for `Cc1sc2c(c1C)C(c1ccc(C(C)(C)N3CC4(CCCN(c5ncc(C(=O)N[C@H]6C(C)(C)[C@H](Oc7ccc(C#N)c(Cl)c7)C6(C)C)cn5)C4)C3)cc1)=N[C@@H](Cc1ncco1)c1nnc(C)n1-2` [Compound I-439], the GI50 is > 3 µM in the experiment on T47D cells (Homo sapiens, T47D, 72 h); > 3 µM in experiment [1] (72 h); > 3 µM with VCaP cells (Homo sapiens, VCaP, 72 h); < 0.5 µM in experiment [2] (72 h).
